Experimental data: patent publication US20180214428A1, “3-(1H-INDOL-2-YL)-1H-PYRAZOLO[3,4-B]PYRIDINES AND THERAPEUTIC USES THEREOF” (Samumed, LLC, priority 2015, published 2018)
pEC50: −log10 of the molar value.

How the values were obtained:
[1] = tested on: IL-6; assay: IL-6 inhibition in LPS-stimulated THP-1 monocytes (HTRF); format: cell-based, human; settings: Homo sapiens; THP-1 cells, 500 ng/mL LPS, 22 h, HTRF IL-6 readout; 10-point dose-response from 10 μM
Protocol: Human monocyte cell line (THP-1 cells; Catalog # TIB-202, ATCC, Manassas, Va.) were cultured in Roswell Park Memorial Institute (RPMI) 1640 Medium (Catalog #21870-100, Buffalo, N.Y.) with 1% L-glutamine, 1% HEPES, 1% Sodium Pyruvate, 2% Sodium Bicarbonate supplemented with 100 units/mL penicillin, 50 μg/mL streptomycin, 2-mercaptoethanol (0.05 mM) [basal medium] and 10% fetal bovine serum (Catalog #16140089, Life Technologies, Carlsbad, Calif.) at 37° C. and 5% CO2.
THP-1 cells were cultured in basal media with 1% FBS for 24 hours before the start of the assay. Each compound was dissolved in DMSO as a 10 mM stock and used to prepare compound source plates. Serial dilution (1:3, 10-point dose-response curves starting from 10 μM) and compound transfer was performed using the ECHO 550 (Labcyte, Sunnyvale, Calif.) into 384-well white low volume assay plates (Greiner Bio-One) with appropriate DMSO backfill for a final DMSO concentration of 0.1%. THP-1 cells were plated at 5000 cells/well in the 384-well plates and incubated at 37° C. for 2 h. 500 ng/mL of LPS was added after 2 hours and cells were incubated for another 22 hours at 37° C. Plates were spun in a centrifuge for 1 minute at […] and a mixture of anti-IL6 XL665, and anti-IL6 Cryptate diluted in reconstitution buffer (Cisbio Inc.) was added to each well. Following incubation for 3 hrs at room temperature, Homogeneous Time-Resolved Fluorescence (HTRF) was measured using the Envision (Perkin Elmer) at 665 nm and […]. The ratio of fluorescence at 665 nm to 620 nm was used as a readout for IL6 quantification. All samples were processed in duplicate. Readings were normalized to DMSO treated cells and normalized activities were utilized for EC50 calculations using the dose-response log (inhibitor) vs. response variable slope (four parameters) nonlinear regression feature available in GraphPad Prism 5.0 (or Dotmatics). For EC50 of >10 μM, the percent inhibition at 10 μM is provided.

[2] = tested on: Wnt activity (Sp5-Luc reporter gene, SW480 colon carcinoma cells); assay: Screening assay for Wnt activity: Sp5-Luc reporter gene assay in SW480 cells; format: cell-based, human; settings: Homo sapiens, overnight incubation
Excerpt: The screening assay for Wnt activity is described as follows. Reporter cell lines can be generated by stably transducing cancer cell lines (e.g., colon cancer) or primary cells (e.g., IEC-6 intestinal cells) with a lentiviral construct that includes a Wnt-responsive promoter driving expression of the firefly luciferase gene.
SW480 colon carcinoma cells were transduced with a lentiviral vector expressing luciferase with a human Sp5 promoter consisting of a sequence of eight TCF/LEF binding sites. SW480 cells stably expressing the Sp5-Luc reporter gene and a hygromycin resistance gene were selected by treatment with 150 μg/mL of hygromycin for 7 days. These stably transduced SW480 cells were expanded in cell culture and used for all further screening activities. Each compound was dissolved in DMSO as a 10 mM stock and used to prepare compound source plates. Serial dilution (1:3, 10-point dose-response curves starting from 10 μM) and compound transfer was performed using the ECHO 550 (Labcyte, Sunnyvale, Calif.) into 384-well white solid bottom assay plates (Greiner Bio-One) with appropriate DMSO backfill for a final DMSO concentration of 0.1%. For Sp5-Luc reporter gene assays, the cells were plated at 4,000 cells/well in 384-well plates with medium containing 1% fetal bovine serum and incubated overnight at 37° C. and 5% CO2. Following incubation, 20 μl of BrightGlo luminescence reagent (Promega) was added to each well of the 384-well assay plates. The plates were placed on an orbital shaker for 2 min and then luminescence was quantified using the Envision (Perkin Elmer) plate reader. Readings were normalized to DMSO only treated cells, and normalized activities were utilized for EC50 calculations using the dose-response log (inhibitor) vs. response variable slope (four parameters) nonlinear regression feature available in GraphPad Prism 5.0 (or Dotmatics). For EC50 of >10 μM, the percent inhibition at 10 μM is provided.

[3] = tested on: primary human fibroblasts derived from IPF patients (LL29 cells); assay: Inhibition of the fibrotic process: αSMA staining in TGF-β1 treated LL29 fibroblasts; format: cell-based; settings: Homo sapiens, Fibroblast, 96 h, TGF-β1 20 ng/mL, 4 days, % αSMA positive cells
Excerpt: Representative compounds were screened using primary human fibroblasts (derived from IPF patients) treated with TGF-β1 to determine their ability to inhibit the fibrotic process.
Primary human fibroblasts derived from IPF patients (LL29 cells) [^1Xiaoqiu Liu, et. al., “Fibrotic Lung Fibroblasts Show Blunted Inhibition by cAMP Due to Deficient cAMP Response Element-Binding Protein Phosphorylation”, Journal of Pharmacology and Experimental Therapeutics (2005), 315(2), 678-687; ^2Watts, K. L., et. al., “RhoA signaling modulates cyclin D1 expression in human lung fibroblasts; implications for idiopathic pulmonary fibrosis”, Respiratory Research (2006), 7(1), 88] were obtained from American Type Culture Collection (ATCC) and expanded in F12 medium supplemented with 15% Fetal Bovine Serum and Penicillin/Streptomycin.
Each compound was dissolved in DMSO as a 10 mM stock and used to prepare compound source plates. Serial dilution (1:2, 11-point dose-response curves from 10 μM to […]) and compound transfer was performed using the ECHO 550 (Labcyte, Sunnyvale, Calif.) into 384-well clear bottom assay plates (Greiner Bio-One) with appropriate DMSO backfill for a final DMSO concentration of 0.1%. LL29 cells are plated at 1,500 cells/well in 80 μL/well F12 medium supplemented with 1% Fetal Bovine Serum. One hour after addition of the cells, TGF-01 (Peprotech; 20 ng/mL) was added to the plates to induce fibrosis (ref. 1 and 2 above). Wells treated with TGF-β1 and containing DMSO were used as controls. Cells were incubated at 37° C. and 5% CO2 for 4 days. Following incubation for 4 days, SYTOX green nucleic acid stain (Life Technologies [Thermo Fisher Scientific]) was added to the wells at a final concentration of 1 μM and incubated at room temperature for 30 min. Cells were then fixed using 4% formaldehyde (Electron Microscopy Sciences), washed 3 times with PBS followed by blocking and permeabilization using 3% Bovine Serum Albumin (BSA; Sigma) and 0.3% Triton X-100 (Sigma) in PBS. Cells were then stained with antibody specific to α-smooth muscle actin (aSMA; Abcam) (ref. 1 and 2 above) in 3% Bovine Serum Albumin (BSA; Sigma) and 0.3% Triton X-100 (Sigma) in PBS, and incubated overnight at 4° C. Cells were then washed 3 times with PBS, followed by incubation with Alexa Flor-647 conjugated secondary antibody (Life Technologies [Thermo Fisher Scientific]) and DAPI at room temperature for 1 hour. Cells were then washed 3 times with PBS and plates were sealed for imaging. αSMA staining was imaged by excitation at 630 nm and emission at 665 nm and quantified using the Compartmental Analysis program on the CellInsight CX5 (Thermo Scientific). Dead or apoptotic cells were excluded from analysis based on positive SYTOX green staining. % of total cells positive for aSMA were counted in each well and normalized to the average of 11 wells treated with TGF-01 on the same plate using Dotmatics' Studies Software. The normalized averages (fold change over untreated) of 3 replicate wells for each compound concentration were used to create dose-responses curves and EC50 values were calculated using non-linear regression curve fit in the Dotmatics' Studies Software. For EC50 of >10 μM, the percent inhibition at 10 μM is provided.

[4] = tested on: SW480 colon cancer cells; assay: Cell viability assay (CellTiter-Blue) in SW480 colon cancer cells; format: cell-based, human; settings: Homo sapiens, 96 h, four days, CellTiter-Blue
Protocol: Representative compounds were screened using the following assay procedure to assess the effect on cell viability as described below.
Each compound was dissolved in DMSO as a 10 mM stock and used to prepare compound source plates. Serial dilution (1:3, 8-point dose-response curves from 10 μM to 0.0045 μM) and compound transfer was performed using the ECHO 550 (Labcyte, Sunnyvale, Calif.) into 96-well clear bottom, black-walled plates (Corning-Costar).
Approximately 2×10^3 SW480 colon cancer cells were seeded into each well and allowed to incubate in the presence or absence of compound for four days at 37° C./5% CO2. Eight replicates of DMSO-treated cells served as controls and cells treated with compound were performed in duplicate.
After incubation, 20 μL of CellTiter-Blue (Promega) was added to each well allowed to incubate for approximately 3 hours. This reagent was a buffered solution which contains resazurin, metabolically active cells were able to reduce rezarurin (blue) into resorufin (pink) which was highly fluorescent. This measured fluorescence was used as a readout for cell viability.
After incubation, the plates were read at Ex 560 nm Em 590 nm (Cytation 3, BioTek). Dose-response curves were generated and EC50 concentration values were calculated using non-linear regression curve fit in the GraphPad Prism (San Diego, Calif.) or Dotmatics' Studies Software (Bishops Stortford, UK). For EC50 of >10 μM, the percent inhibition at 10 μM is provided.

| SMILES | pEC50 [1] | pEC50 [2] | pEC50 [4] | pEC50 [3] |
| --- | --- | --- | --- | --- |
| O=C(Nc1cncc(-c2cnc3[nH]nc(-c4cc5ccccc5[nH]4)c3c2)c1)C1CCC1 [Compound 247, N-(5-(3-(1H-Indol-2-yl)-1H-pyrazolo[3,4-b]pyridin-5-yl)pyridin-3-yl) cyclobutanecarboxamide] | 7.00 | 6.28 | 5.87 | 7.17 |
| CS(=O)(=O)NCc1cc(F)cc(-c2cccc3[nH]c(-c4n[nH]c5ncc(-c6cncc(NC(=O)c7ccccc7)c6)cc45)cc23)c1 [Compound 461, N-(5-(3-(4-(3-Fluoro-5-(methylsulfonamidomethyl)phenyl)-1H-indol-2-yl)-1H-pyrazolo[3,4-b]pyridin-5-yl)pyridin-3-yl)benzamide] | 6.26 | 6.68 | 5.77 | 5.87 |
| Cn1cc(-c2cnc3[nH]nc(-c4cc5c(-c6cccs6)cccc5[nH]4)c3c2)cn1 [Compound 702, 5-(1-Methyl-1H-pyrazol-4-yl)-3-(4-(thiophen-2-yl)-1H-indol-2-yl)-1H-pyrazolo[3,4-b]pyridine] | 5.86 | 5.88 | 5.95 | 6.06 |
| Cc1ncc(-c2cnc3[nH]nc(-c4cc5ncccc5[nH]4)c3c2)n1C [Compound 997, 5-(1,2-Dimethyl-1H-imidazol-5-yl)-3-(1H-pyrrolo[3,2-b]pyridin-2-yl)-1H-pyrazolo[3,4-b]pyridine] | 5.05 | 5.96 | 5.40 | 6.13 |

More lines, in order of rising pEC50 [1], values ahead:

| pEC50 [1] | pEC50 [2] | pEC50 [4] | SMILES | pEC50 [3] |
| --- | --- | --- | --- | --- |
| 5.13 | 5.42 | 5.46 | CN(C)c1cncc(-c2cnc3[nH]nc(-c4cc5ncccc5[nH]4)c3c2)c1 [Compound 485, 5-(3-(1H-Pyrrolo[3,2-b]pyridin-2-yl)-1H-pyrazolo[3,4-b]pyridin-5-yl)-N,N-dimethylpyridin-3-amine] | 5.55 |
| 5.84 | 6.55 | 5.95 | CN(C)c1cncc(-c2cnc3[nH]nc(-c4cc5c(-c6cc(F)cc(CNS(C)(=O)=O)c6)cccc5[nH]4)c3c2)c1 [Compound 457, N-(3-(2-(5-(5-(Dimethylamino)pyridin-3-yl)-1H-pyrazolo[3,4-b]pyridin-3-yl)-1H-indol-4-yl)-5-fluorobenzyl)methanesulfonamide] | 5.76 |
| 6.27 | 6.32 | 5.97 | CS(=O)(=O)NCc1cc(F)cc(-c2cccc3[nH]c(-c4n[nH]c5ncc(-c6cncc(NC(=O)C7CC7)c6)cc45)cc23)c1 [Compound 470, N-(5-(3-(4-(3-Fluoro-5-(methylsulfonamidomethyl)phenyl)-1H-indol-2-yl)-1H-pyrazolo[3,4-b]pyridin-5-yl)pyridin-3-yl)cyclopropanecarboxamide] | 5.88 |
| 6.84 | 6.31 | 5.98 | CC(C)(C)C(=O)Nc1cncc(-c2cnc3[nH]nc(-c4cc5c(-c6cc(F)cc(CNS(C)(=O)=O)c6)cccc5[nH]4)c3c2)c1 [Compound 458, N-(5-(3-(4-(3-Fluoro-5-(methylsulfonamidomethyl)phenyl)-1H-indol-2-yl)-1H-pyrazolo[3,4-b]pyridin-5-yl)pyridin-3-yl)pivalamide] | 5.92 |
